Source: paper PMC9603901, “Therapeutic Potential of Antimicrobial Peptide PN5 against Multidrug-Resistant E. coli and Anti-Inflammatory Activity in a Septic Mouse Model” (Microbiology Spectrum, 2022)
Converted amounts (≈) assume the structure as drawn. Like-named read-outs stand apart in the source and are kept apart here. Where no end group is shown, it is not given here.

Experiments:
E. coli ATCC 25922 = experiment: microbe, parasite or virus in culture; assay type: cell-based, Escherichia coli; details: for MIC: Escherichia coli
Method: (§1) E. coli ATCC 25922 cells were incubated overnight at 37°C in LB medium with shaking (180 rpm) and then adjusted to 2 × 10^5 CFU mL^−1; 0.5× MIC of PN5 and antibiotics were added to the medium and cultured overnight at 37°C with aeration (180 rpm). The MIC was determined by measuring the OD600 using a Versa Max microplate reader. On the next day, to measure the MIC with the bacteria grown after treatment with 0.5× MIC, the bacteria and antibiotic were adjusted to the same concentration, and the bacteria were cultured by adding 0.5× MIC in the same manner. The initial culture was continuously cultured for 25 passages in this manner.

[1] = tested on: E. coli – Meropenem (Passage 25); experiment: microbe, parasite or virus in culture; assay type: cell-based, Escherichia coli
Method: as §1

[2] = tested on: E. coli – Ceftazidime (Passage 25); experiment: microbe, parasite or virus in culture; assay type: cell-based, Escherichia coli
Method: as §1

MDR E. coli ASEC 4 = tested on: MDR E. coli ASEC 4; design: method as in Asan hospital; key to susceptibility category: S: susceptible; R: resistant; I: intermediate; details: ref Asan hospital, cited from earlier work; for MIC: ASEC 4 (ESBL), resistance information of clinical isolate; for susceptibility category: ASEC 4
MDR E. coli ASEC 15 = tested on: MDR E. coli ASEC 15; design: method as in Asan hospital; key to susceptibility category: S: susceptible; R: resistant; I: intermediate; details: ref Asan hospital, cited from earlier work; for MIC: ASEC 15 (AmpC), resistance information of clinical isolate; for susceptibility category: ASEC 15
MDR E. coli ASEC 5 = tested on: MDR E. coli ASEC 5; design: method as in Asan hospital; key to susceptibility category: S: susceptible; R: resistant; I: intermediate; details: ref Asan hospital, cited from earlier work; for MIC: ASEC 5 (ESBL), resistance information of clinical isolate; for susceptibility category: ASEC 5
MDR E. coli ASEC 6 = tested on: MDR E. coli ASEC 6; design: method as in Asan hospital; key to susceptibility category: S: susceptible; R: resistant; I: intermediate; details: ref Asan hospital, cited from earlier work; for MIC: ASEC 6 (ESBL), resistance information of clinical isolate; for susceptibility category: ASEC 6
MDR E. coli ASEC 3 = tested on: MDR E. coli ASEC 3; design: method as in Asan hospital; key to susceptibility category: S: susceptible; R: resistant; I: intermediate; details: ref Asan hospital, cited from earlier work; for MIC: ASEC 3 (NDM-5), resistance information of clinical isolate; for susceptibility category: ASEC 3
MDR E. coli ASEC 1 = tested on: MDR E. coli ASEC 1; design: method as in Asan hospital; key to susceptibility category: S: susceptible; R: resistant; I: intermediate; details: ref Asan hospital, cited from earlier work; for MIC: ASEC 1 (carbapenemase NDM-1), resistance information of clinical isolate; for susceptibility category: ASEC 1
MDR E. coli ASEC 2 = tested on: MDR E. coli ASEC 2; design: method as in Asan hospital; key to susceptibility category: S: susceptible; R: resistant; I: intermediate; details: ref Asan hospital, cited from earlier work; for MIC: ASEC 2 (NDM-7), resistance information of clinical isolate; for susceptibility category: ASEC 2
MDR E. coli ASEC 11 = tested on: MDR E. coli ASEC 11; design: method as in Asan hospital; key to susceptibility category: S: susceptible; R: resistant; I: intermediate; details: ref Asan hospital, cited from earlier work; for MIC: ASEC 11 (ESBL), resistance information of clinical isolate; for susceptibility category: ASEC 11
MDR E. coli ASEC 10 = tested on: MDR E. coli ASEC 10; design: method as in Asan hospital; key to susceptibility category: S: susceptible; R: resistant; I: intermediate; details: ref Asan hospital, cited from earlier work; for MIC: ASEC 10 (ESBL), resistance information of clinical isolate; for susceptibility category: ASEC 10
MDR E. coli ASEC 16 = tested on: MDR E. coli ASEC 16; design: method as in Asan hospital; key to susceptibility category: S: susceptible; R: resistant; I: intermediate; details: ref Asan hospital, cited from earlier work; for MIC: ASEC 16 (AmpC), resistance information of clinical isolate; for susceptibility category: ASEC 16
MDR E. coli ASEC 14 = tested on: MDR E. coli ASEC 14; design: method as in Asan hospital; key to susceptibility category: S: susceptible; R: resistant; I: intermediate; details: ref Asan hospital, cited from earlier work; for MIC: ASEC 14 (AmpC), resistance information of clinical isolate; for susceptibility category: ASEC 14
MDR E. coli ASEC 18 = tested on: MDR E. coli ASEC 18; design: method as in Asan hospital; key to susceptibility category: S: susceptible; R: resistant; I: intermediate; details: ref Asan hospital, cited from earlier work; for MIC: ASEC 18 (AmpC), resistance information of clinical isolate; for susceptibility category: ASEC 18
MDR E. coli ASEC 13 = tested on: MDR E. coli ASEC 13; design: method as in Asan hospital; key to susceptibility category: S: susceptible; R: resistant; I: intermediate; details: ref Asan hospital, cited from earlier work; for MIC: ASEC 13 (AmpC), resistance information of clinical isolate; for susceptibility category: ASEC 13
MDR E. coli ASEC 8 = tested on: MDR E. coli ASEC 8; design: method as in Asan hospital; key to susceptibility category: S: susceptible; R: resistant; I: intermediate; details: ref Asan hospital, cited from earlier work; for MIC: ASEC 8 (ESBL), resistance information of clinical isolate; for susceptibility category: ASEC 8
MDR E. coli ASEC 9 = tested on: MDR E. coli ASEC 9; design: method as in Asan hospital; key to susceptibility category: S: susceptible; R: resistant; I: intermediate; details: ref Asan hospital, cited from earlier work; for MIC: ASEC 9 (ESBL), resistance information of clinical isolate; for susceptibility category: ASEC 9
MDR E. coli ASEC 19 = tested on: MDR E. coli ASEC 19; design: method as in Asan hospital; key to susceptibility category: S: susceptible; R: resistant; I: intermediate; details: ref Asan hospital, cited from earlier work; for MIC: ASEC 19 (AmpC), resistance information of clinical isolate; for susceptibility category: ASEC 19
[3] = E. coli ATCC 25922 passaged with 0.5× MIC of the same agent
[4] = ATCC25922, read-out: MIC after 25 passages
[5] = ATCC25922, read-out: MIC at passage 1
[6] = Escherichia coli, read-out: MIC, value in parentheses

Compound	MIC (MDR E. coli ASEC 4) [µg/mL]	susceptibility category (MDR E. coli ASEC 4)	MIC (MDR E. coli ASEC 15)	susceptibility category (MDR E. coli ASEC 15)	MIC (MDR E. coli ASEC 5)	susceptibility category (MDR E. coli ASEC 5)	MIC (MDR E. coli ASEC 6) [µg/mL]	susceptibility category (MDR E. coli ASEC 6)	MIC (MDR E. coli ASEC 3) [µg/mL]	susceptibility category (MDR E. coli ASEC 3)	MIC (MDR E. coli ASEC 1) [µg/mL]	susceptibility category (MDR E. coli ASEC 1)	MIC (MDR E. coli ASEC 2) [µg/mL]	susceptibility category (MDR E. coli ASEC 2)	MIC (MDR E. coli ASEC 11)	susceptibility category (MDR E. coli ASEC 11)	MIC (MDR E. coli ASEC 10)	susceptibility category (MDR E. coli ASEC 10)	MIC (MDR E. coli ASEC 16)	susceptibility category (MDR E. coli ASEC 16)	also measured
FKFLARTGKFL-NH2 [PN5]																					MIC after 25 passages (E. coli ATCC 25922; [3]): 16 µM; MIC ([1]; E. coli ATCC 25922 with resistance induced by meropenem, passage 25, three independent experiments): 16 µM; MIC ([2]; E. coli ATCC 25922 with resistance induced by ceftazidime, passage 25, three independent experiments): 16 µM
CO/N=C(\C(=O)N[C@@H]1C(=O)N2C(C(=O)O)=C(COC(C)=O)CS[C@H]12)c1csc(N)n1 [Cefotaxime]	> 32	R	> 32 µg/mL	R	> 32 µg/mL	R	> 32	R	> 32	R	> 32	R	> 32	R	> 32 µg/mL	R	> 32 µg/mL	R	> 32 µg/mL	R	MIC (MDR E. coli ASEC 14): > 32 µg/mL; susceptibility category (MDR E. coli ASEC 14): R; MIC (MDR E. coli ASEC 18): 32 µg/mL (≈ 70.3 µM); susceptibility category (MDR E. coli ASEC 18): R; MIC (MDR E. coli ASEC 13): > 32 µg/mL; susceptibility category (MDR E. coli ASEC 13): R; MIC (MDR E. coli ASEC 8): > 32 µg/mL; susceptibility category (MDR E. coli ASEC 8): R; MIC (MDR E. coli ASEC 9): > 32 µg/mL; susceptibility category (MDR E. coli ASEC 9): R; MIC (MDR E. coli ASEC 19): > 32 µg/mL; susceptibility category (MDR E. coli ASEC 19): R
C[C@@H](O)[C@H]1C(=O)N2C(C(=O)O)=C(S[C@@H]3CN[C@H](C(=O)N(C)C)C3)[C@H](C)[C@H]12 [Meropenem]	> 8	R	<= 1 μg mL-1	S	<= 4 μg mL-1	S	> 8	R	> 8	R	8 (≈ 20.9 µM)	R	> 8	R	<= 1 μg mL-1	S	<= 1 μg mL-1	S	<= 1 μg mL-1	S	fold increase of MIC after 25 passages (E. coli ATCC 25922; [3]): 8 fold; MIC (E. coli ATCC 25922; [4]): 0.25 µM (≈ 0.0959 µg/mL); MIC (E. coli ATCC 25922; [5]): 0.0312 µM (≈ 0.012 µg/mL); MIC ([1]; Escherichia coli, ATCC25922): 0.25 µM (≈ 0.0959 µg/mL); MIC [1, 6]: 0.0312 µM (≈ 0.012 µg/mL); MIC ([2]; Escherichia coli, ATCC25922): 0.0312 µM (≈ 0.012 µg/mL); MIC [2, 6]: 0.0312 µM (≈ 0.012 µg/mL); MIC (MDR E. coli ASEC 14): 8 µg/mL (≈ 20.9 µM); susceptibility category (MDR E. coli ASEC 14): R; MIC (MDR E. coli ASEC 18): <= 1 μg mL-1; susceptibility category (MDR E. coli ASEC 18): S; MIC (MDR E. coli ASEC 13): > 8 µg/mL; susceptibility category (MDR E. coli ASEC 13): R; MIC (MDR E. coli ASEC 8): <= 1 μg mL-1; susceptibility category (MDR E. coli ASEC 8): S; MIC (MDR E. coli ASEC 9): <= 1 μg mL-1; susceptibility category (MDR E. coli ASEC 9): S; MIC (MDR E. coli ASEC 19): <= 1 μg mL-1; susceptibility category (MDR E. coli ASEC 19): S
CC(C)(O/N=C(\C(=O)N[C@@H]1C(=O)N2C(C(=O)[O-])=C(C[n+]3ccccc3)CS[C@H]12)c1csc(N)n1)C(=O)O [Ceftazidime]	> 16	R	> 16 µg/mL	R	> 16 µg/mL	R	> 16	R	> 16	R	> 16	R	> 16	R	> 16 µg/mL	R	16 µg/mL (≈ 29.3 µM)	R	> 16 µg/mL	R	fold increase of MIC after 25 passages (E. coli ATCC 25922; [3]): 512 fold; MIC (E. coli ATCC 25922; [4]): 128 µM (≈ 70 µg/mL); MIC (E. coli ATCC 25922; [5]): 0.25 µM (≈ 0.137 µg/mL); MIC ([1]; Escherichia coli, ATCC25922): 0.25 µM (≈ 0.137 µg/mL); MIC [1, 6]: 0.25 µM (≈ 0.137 µg/mL); MIC ([2]; Escherichia coli, ATCC25922): 128 µM (≈ 70 µg/mL); MIC [2, 6]: 0.25 µM (≈ 0.137 µg/mL); MIC (MDR E. coli ASEC 14): > 16 µg/mL; susceptibility category (MDR E. coli ASEC 14): R; MIC (MDR E. coli ASEC 18): > 16 µg/mL; susceptibility category (MDR E. coli ASEC 18): R; MIC (MDR E. coli ASEC 13): > 16 µg/mL; susceptibility category (MDR E. coli ASEC 13): R; MIC (MDR E. coli ASEC 8): > 16 µg/mL; susceptibility category (MDR E. coli ASEC 8): R; MIC (MDR E. coli ASEC 9): > 16 µg/mL; susceptibility category (MDR E. coli ASEC 9): R; MIC (MDR E. coli ASEC 19): > 16 µg/mL; susceptibility category (MDR E. coli ASEC 19): R
